Experimental findings from ChEMBL document CHEMBL4184220, “Identification of novel plasminogen activator inhibitor-1 inhibitors with improved oral bioavailability: Structure optimization of N-acylanthranilic acid derivatives” (Bioorg Med Chem Lett, 2018) are described below.

Data set [1] can be described thus: Tmax in Wistar rat at 5 mg/kg, po administered as triple or quadruple dosing measured after 1 to 24 hrs by reverse-phase HPLC method. It is filed as ADME, organism-based. To be noted: in vivo.
Data set [2] is described as follows: Half life in Wistar rat at 5 mg/kg, po administered as triple or quadruple dosing measured after 1 to 24 hrs by reverse-phase HPLC method. The note with it: in vivo. In kind it is ADME, organism-based.
Data set [3] addresses Plasminogen activator inhibitor 1 (Homo sapiens, UniProt P05121). Nature of the data set: Inhibition of human PAI-1 assessed as remaining enzyme activity by measuring p-nitroaniline release pre-incubated for 15 mins before 2 nM […] addition for 15 mins using 5 nM enzyme and chromogenic substrate S-2288 by spectrophotometry.
The nature of data set [4]: Cmax in Wistar rat at 5 mg/kg, po administered as triple or quadruple dosing measured after 1 to 24 hrs by reverse-phase HPLC method. In kind it is ADME, organism-based. The arrangement: dose 5 mg/kg, route oral. The note with it: in vivo.
Data set [5] can be described thus: Tmax in Wistar rat at 50 mg/kg, po administered as single dose measured after 1 to 24 hrs by reverse-phase HPLC method. In kind it is ADME, organism-based. To be noted: in vivo.
Data set [6] is described as follows: Cmax in Wistar rat at 50 mg/kg, po administered as single dose measured after 1 to 24 hrs by reverse-phase HPLC method. It is filed as ADME, organism-based. Further details: dose 50 mg/kg, route oral. The note with it: in vivo.
Data set [7] is described as follows: Half life in Wistar rat at 5 mg/kg, po administered as single dose measured after 1 to 24 hrs by reverse-phase HPLC method. To be noted: in vivo.
Data set [8] is described as follows: Cmax in Wistar rat at 5 mg/kg, po administered as single dose measured after 1 to 24 hrs by reverse-phase HPLC method. The note with it: in vivo. Further details: dose 5 mg/kg, route oral. It is filed as ADME, organism-based.
Data set [9] is described as follows: Tmax in Wistar rat at 5 mg/kg, po administered as single dose measured after 1 to 24 hrs by reverse-phase HPLC method. It is filed as ADME, organism-based. To be noted: in vivo.

By Tmax is commonly meant the time from dosing to the highest level. Broadly, the half-life is how long it takes for the measured level to halve. The term IC50 denotes the midpoint of a concentration-inhibition curve. In general, Cmax refers to the highest concentration seen after dosing.

Chain of Plasminogen activator inhibitor 1 (P05121 whole entry): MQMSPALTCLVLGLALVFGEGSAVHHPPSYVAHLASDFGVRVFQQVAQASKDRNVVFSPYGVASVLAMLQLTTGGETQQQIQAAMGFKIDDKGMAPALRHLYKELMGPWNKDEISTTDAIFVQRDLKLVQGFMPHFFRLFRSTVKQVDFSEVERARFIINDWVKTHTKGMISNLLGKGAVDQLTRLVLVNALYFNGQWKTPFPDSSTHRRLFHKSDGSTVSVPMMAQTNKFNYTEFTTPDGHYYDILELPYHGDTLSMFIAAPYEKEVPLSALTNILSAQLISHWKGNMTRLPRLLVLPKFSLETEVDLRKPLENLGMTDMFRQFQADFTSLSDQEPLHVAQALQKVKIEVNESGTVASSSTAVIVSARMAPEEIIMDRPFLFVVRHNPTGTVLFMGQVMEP

Consider `O=C(Nc1ccc(Cl)cc1C(=O)O)c1ccc(-c2ccccc2)cc1`, for which the Tmax in data set [1] amounted to 2 h. Further, the half-life in data set [2] is 624 min. The IC50 in [3] came out at 2980 nM. The compound further returned a Cmax in data set [4] of 73.5 µM.
For the compound `O=C(Nc1ccc(Cl)cc1C(=O)O)c1cccc(C23CC4CC(CC(C4)C2)C3)c1`, the Tmax in data set [1] is 2 h. In data set [2], this compound had a half-life of 138 min. The IC50 in data set [3] came out at 1860 nM. The compound also had a Cmax in data set [4] of 4.4 µM.
Taken in the same sequence, the figures for `O=C(Nc1ccc(Cl)cc1C(=O)[O-])c1cccc(-c2cnc3ccccc3c2)c1.[Na+]` were 2 h, 210 min, 1670 nM and 1.1 µM.
For `O=C(COCC(=O)Nc1ccc(Cl)cc1C(=O)[O-])Nc1cccc(-c2ccc(F)cc2)c1.[Na+]`, the Tmax in [5] amounted to 1 h. The same compound displayed a Cmax in data set [6] of 62.8 µM.
As for `O=C(COCC(=O)Nc1ccc(Cl)cc1C(=O)[O-])Nc1cccc(-n2cccc2)c1.[Na+]`, the half-life in data set [7] is 132 min. Further, in data set [8], the maximum concentration (Cmax) was 7.4 µM. Further, the Tmax in data set [9] amounted to 2 h.
For `O=C(Nc1ccc(Cl)cc1C(=O)[O-])c1cccc(-c2cncc3ccccc23)c1.[Na+]`, the Tmax in [1] worked out at 6 h. The compound also gave a half-life in [2] of 552 min. In addition, the IC50 in data set [3] turned out to be 3190 nM. Besides, in [4], the Cmax was determined as 1 µM.
For the compound `O=C(COCC(=O)Nc1ccc(Cl)cc1C(=O)O)Nc1cccc(-c2ccoc2)c1`, the Cmax in [8] is 17.9 µM; in data set [6], 149 µM. In addition, the time of peak concentration (Tmax) in data set [9] and in data set [5] was 1 h in each case.
As to `O=C(NCc1cccc(-c2ccoc2)c1)C(=O)Nc1ccc(Cl)cc1C(=O)O`, in data set [1], the Tmax was 2 h. Further, in data set [2], the half-life was greater than 1320 min. The compound further showed a Cmax in [4] of 41.6 µM.
In the case of `O=C(Nc1ccc(Cl)cc1C(=O)[O-])c1cccc(-c2cccc3cnccc23)c1.[Na+]`, in data set [1], the Tmax was 2 h. The compound also had a half-life in data set [2] of 630 min. In addition, the IC50 in [3] is 1840 nM. The same compound came in with a maximum concentration (Cmax) in data set [4] of 1.2 µM.
As to `O=C(COc1cccc(-c2ccoc2)c1)Nc1ccc(Cl)cc1C(=O)O`, in data set [1], the time of peak concentration (Tmax) amounted to 2 h. Also, in data set [2], the half-life is 114 min. In addition, the Cmax in [4] was found to be 56.3 µM.
Regarding `O=C(Nc1ccc(Cl)cc1C(=O)O)c1ccc(C(=O)c2ccccc2)cc1`, in [1], the Tmax was 1 h. The compound also had a half-life in data set [2] of 54 min. For the same compound, the IC50 in data set [3] is 4110 nM. In addition, the concentration in data set [4] peaked (Cmax) at 35 µM.
For the compound `O=C(COCC(=O)Nc1ccc(Cl)cc1C(=O)[O-])Nc1cccc(-c2cccnc2)c1.[Na+]`, in data set [5], the Tmax amounted to 2 h. The same compound registered a Cmax in data set [6] of 15.1 µM.
For `O=C(COCC(=O)Nc1ccc(Cl)cc1C(=O)O)NCc1cccc(-c2ccoc2)c1`, the Tmax in data set [1] came out at 2 h. The same compound gave a half-life in data set [2] of 162 min. The compound further came in with a Cmax in data set [4] of 14 µM.
As to `O=C(Nc1ccc(Cl)cc1C(=O)O)c1ccc(C2CCOCC2)cc1`, the Tmax in data set [1] was 1 h. The compound further gave a half-life in data set [2] of 108 min. Also, the IC50 in [3] worked out at 21600 nM. In data set [4], this compound gave a Cmax of 45.5 µM.
`O=C(Nc1ccc(Cl)cc1C(=O)[O-])c1cccc(-c2cccc3cccnc23)c1.[Na+]`: in data set [1], the Tmax worked out at 1 h. Also, the half-life in [2] was 150 min. Besides, the IC50 in data set [3] came out at 3630 nM. This compound also displayed a Cmax in data set [4] of 22.2 µM.
The matching figures for `O=C(Nc1ccc(Cl)cc1C(=O)O)c1ccc(C23CC4CC(CC(C4)C2)C3)cc1`: 2 h, 258 min, 1170 nM and 13.8 µM.
On to `O=C(COCC(=O)Nc1ccc(Cl)cc1C(=O)O)Nc1cccc(-c2ccsc2)c1`, for which, in [5], the Tmax was determined as 2 h. The compound also registered a Cmax in [6] of 86.5 µM.
Turning to `O=C(Nc1ccc(Cl)cc1C(=O)O)c1ccc(Oc2ccccc2)cc1`, the Tmax in data set [1] was 6 h. This compound also gave a half-life in [2] of 798 min. Further, in [3], the IC50 was found to be 5520 nM. For the same compound, the Cmax in [4] turned out to be 64.2 µM.
On to `O=C(COCC(=O)Nc1ccc(Cl)cc1C(=O)O)Nc1ccc(-c2ccncc2)cc1`, for which, in data set [5], the Tmax was 6 h. The peak level in [6] (Cmax) was 7.8 µM.
Turning to `O=C(Nc1cccc(-c2ccoc2)c1)C(=O)Nc1ccc(Cl)cc1C(=O)O`, in data set [1], the Tmax came to 2 h. This compound had a half-life in [2] of 102 min. In data set [4], this compound displayed a Cmax of 22.5 µM.
As for `O=C(COCC(=O)Nc1ccccc1-c1ccc(F)cc1)Nc1ccc(Cl)cc1C(=O)O`, the Tmax in data set [5] came to 1 h. In addition, the Cmax in data set [6] was 41.8 µM.
In the case of `CC(C)Oc1ccc(C(=O)Nc2ccc(Cl)cc2C(=O)O)cc1`, in [1], the Tmax was 1 h. The compound also gave a half-life in [2] of 300 min. The IC50 in [3] is greater than 10000 nM. This compound also showed a Cmax in [4] of 22.3 µM.
Regarding `O=C(Nc1ccc(Cl)cc1C(=O)[O-])c1cccc(-c2ccncc2)c1.[Na+]`, in data set [1], the Tmax came out at 2 h. The same compound showed a half-life in data set [2] of 96 min. For the same compound, in data set [3], the IC50 was greater than 40000 nM. Besides, the Cmax in data set [4] was 5.2 µM.
Taken in the same sequence, the figures for `O=C(Nc1ccc(Cl)cc1C(=O)O)c1ccc(-c2cccs2)cc1` were 2 h, 114 min, greater than 20000 nM and 38.4 µM.
In data set [7], `O=C(COCC(=O)Nc1ccc(Cl)cc1C(=O)O)Nc1cccc(-c2cn[nH]c2)c1` gave a half-life of 186 min. For the same compound, the concentration in data set [8] peaked (Cmax) at 1.7 µM. Besides, the Tmax in [9] turned out to be 1 h.
For `O=C(Nc1ccc(Cl)cc1C(=O)O)c1cccc(C2CCCCC2)c1`, the Tmax in data set [1] came out at 1 h. The compound further had a half-life in [2] of 84 min. For the same compound, the IC50 in data set [3] was determined as 2420 nM. Moreover, the Cmax in data set [4] was determined as 3.3 µM.
For the compound `O=C(COCC(=O)Nc1ccc(Cl)cc1C(=O)O)Nc1cccc(-c2ccno2)c1`, the half-life in data set [7] is 360 min. This compound registered a Cmax in data set [8] of 14 µM. Besides, the Tmax in data set [9] is 1 h.
For the compound `CC(C)(C)c1ccc(C(=O)Nc2ccc(Cl)cc2C(=O)O)cc1`, in data set [1], the Tmax was 1 h. In data set [2], this compound showed a half-life of 204 min. The IC50 in data set [3] was 5200 nM. This compound registered a Cmax in data set [4] of 64.9 µM.
Turning to `O=C(CSCC(=O)Nc1ccc(Cl)cc1C(=O)O)Nc1cccc(-c2ccoc2)c1`, the time to peak (Tmax) in [1] was 1 h. In [2], the half-life was 156 min. For the same compound, in [4], the highest level (Cmax) was 5.4 µM.
Consider `O=C(Nc1ccc(Cl)cc1C(=O)O)c1cccc(-c2cccc3ccccc23)c1`, for which the Tmax in data set [1] amounted to 2 h. The compound also gave a half-life in data set [2] of 102 min. Also, the IC50 in [3] is 900 nM. The compound also showed a Cmax in data set [4] of 6.3 µM.
`O=C(COCC(=O)Nc1ccc(Cl)cc1C(=O)O)Nc1cccc(-c2ccon2)c1`: the half-life in [7] is 114 min. The same compound registered a Cmax in [8] of 2 µM. Besides, the Tmax in [9] was found to be 2 h.
With `O=C(Nc1ccc(Cl)cc1C(=O)O)c1cccc(-c2ccccc2)c1`, the Tmax in [1] stood at 2 h. Besides, the half-life in [2] is 96 min. The IC50 in data set [3] is 2820 nM. Further, the Cmax in data set [4] was determined as 17 µM.
Regarding `O=C(Cc1cccc(-c2ccoc2)c1)Nc1ccc(Cl)cc1C(=O)O`, the Tmax in data set [1] was 2 h. Further, the half-life in data set [2] was 114 min. Further, the Cmax in data set [4] is 43.1 µM.
As to `O=C(Nc1ccc(Cl)cc1C(=O)O)c1cccc(-c2ccoc2)c1`, in data set [1], the Tmax was 2 h. In data set [2], the half-life was 120 min. Also, the highest level in data set [4] (Cmax) was 29.4 µM.
With `O=C(Nc1ccc(Cl)cc1C(=O)O)c1ccc(C2CCCCC2)cc1`, in [1], the Tmax worked out at 1 h. Further, the half-life in data set [2] was 42 min. Further, the concentration for half-maximal inhibition (IC50) in data set [3] was determined as 2400 nM. The compound also gave a Cmax in data set [4] of 15.2 µM.
As to `O=C(Nc1ccc(Cl)cc1C(=O)O)c1cccc(C2=CCCCC2)c1`, in data set [1], the Tmax came to 1 h. In addition, the half-life in data set [2] was 42 min. Also, the IC50 in data set [3] turned out to be 2310 nM. The compound further had a Cmax in [4] of 5.2 µM.
